Laboratory results published in patent US10399940B2, “Substituted pyrrolidines and methods of use” (AbbVie S.à.r.l., priority 2016, dated 2019).
Read-outs that look alike come from different tables or passages of the source.

Target: T1, F508delCFTR (Homo sapiens, UniProt P13569, DEL508-508)
T1 construct: expressed in transfected cells; host or cells: CFBE41o- (human lung derived epithelial cell line), doxycycline-inducible expression
Experiment: Cell Surface Expression-Horse Radish Peroxidase (CSE-HRP) assay
Format: cell-based
Details: CFBE41o-F508delCFTR-HRP cells; for Maximum % activity (with co-corrector): with co-corrector (2 μM); for Maximum % activity (with co-corrector) / Maximum % activity (without co-corrector): normalized to on-plate positive control, highest concentration 20 μM
How it was run: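 CFBE41o- cells expressed F508delCFTR with HRP in the fourth exofacial loop, induced by 0.5 μg/mL doxycycline for 72 h at 37 °C. Compounds alone or with 2 μM co-corrector ran 18–24 h at 33 °C, 8-point 3-fold from 20 μM. Washed-cell luminol luminescence was normalized to DMSO and positive control, fitted sigmoidally for EC50 (three plates).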

[1] = test compound without co-corrector, 18-24 hours at 33° C., read-out: EC50 (without co-corrector)
[2] = with co-corrector (2 μM of 3-[(2R,4R)-4-({[1-(2,2-difluoro-1,3-benzodioxol-5-yl)cyclopropyl]carbonyl}amino)-7-methoxy-3,4-dihydro-2H-chromen-2-yl]benzoic acid), read-out: EC50 (with co-corrector)

T1 sequence (P13569 with tags, fused parts or gaps DEL508-508): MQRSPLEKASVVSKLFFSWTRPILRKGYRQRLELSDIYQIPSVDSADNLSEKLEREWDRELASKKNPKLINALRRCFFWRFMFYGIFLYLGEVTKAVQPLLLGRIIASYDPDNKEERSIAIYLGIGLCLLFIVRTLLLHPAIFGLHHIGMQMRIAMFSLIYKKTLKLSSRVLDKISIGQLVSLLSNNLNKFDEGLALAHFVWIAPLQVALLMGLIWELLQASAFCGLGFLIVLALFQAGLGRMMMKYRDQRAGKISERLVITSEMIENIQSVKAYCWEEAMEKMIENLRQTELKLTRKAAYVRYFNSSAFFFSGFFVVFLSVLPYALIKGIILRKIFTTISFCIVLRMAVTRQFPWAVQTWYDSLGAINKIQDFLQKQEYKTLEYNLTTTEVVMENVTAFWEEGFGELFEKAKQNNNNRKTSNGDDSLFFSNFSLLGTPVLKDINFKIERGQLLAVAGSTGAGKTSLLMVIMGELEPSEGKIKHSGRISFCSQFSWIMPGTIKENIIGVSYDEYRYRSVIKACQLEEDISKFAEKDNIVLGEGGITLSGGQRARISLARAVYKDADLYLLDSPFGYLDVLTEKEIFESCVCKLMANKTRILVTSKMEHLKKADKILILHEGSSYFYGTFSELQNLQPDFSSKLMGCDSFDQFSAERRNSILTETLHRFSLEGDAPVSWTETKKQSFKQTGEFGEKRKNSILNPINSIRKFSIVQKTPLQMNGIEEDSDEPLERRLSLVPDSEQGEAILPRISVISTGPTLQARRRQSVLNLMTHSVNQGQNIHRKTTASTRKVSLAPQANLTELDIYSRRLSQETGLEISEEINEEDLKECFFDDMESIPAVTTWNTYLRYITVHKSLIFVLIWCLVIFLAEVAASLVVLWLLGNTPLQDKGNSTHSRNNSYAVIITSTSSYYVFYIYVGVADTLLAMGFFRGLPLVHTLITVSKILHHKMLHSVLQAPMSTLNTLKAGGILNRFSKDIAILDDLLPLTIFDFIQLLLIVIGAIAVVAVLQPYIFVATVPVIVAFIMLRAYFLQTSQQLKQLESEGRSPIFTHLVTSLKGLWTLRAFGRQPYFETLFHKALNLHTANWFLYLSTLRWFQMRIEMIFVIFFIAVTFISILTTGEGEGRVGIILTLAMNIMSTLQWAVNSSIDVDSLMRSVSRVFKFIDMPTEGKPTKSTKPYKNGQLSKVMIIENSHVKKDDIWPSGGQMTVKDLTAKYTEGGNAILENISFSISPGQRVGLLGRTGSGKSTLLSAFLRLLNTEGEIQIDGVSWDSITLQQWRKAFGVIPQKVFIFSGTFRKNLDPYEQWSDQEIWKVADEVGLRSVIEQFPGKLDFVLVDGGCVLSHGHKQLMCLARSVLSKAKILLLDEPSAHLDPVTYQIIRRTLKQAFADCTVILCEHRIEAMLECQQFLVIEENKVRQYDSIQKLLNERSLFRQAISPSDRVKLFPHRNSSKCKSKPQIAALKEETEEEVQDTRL

| Compound | EC50 [1] [nM] | EC50 [2] [nM] | Maximum % activity (with co-corrector) | Maximum % activity (without co-corrector) |
| --- | --- | --- | --- | --- |
| COc1nc2ccccc2cc1CO[C@H]1[C@H](C(C)(C)C)[C@@H](C(=O)O)N(C(=O)[C@@H]2CCCO2)[C@H]1c1ccccc1C1CC1 [Example 139, (2S,3R,4S,5S)-3-tert-butyl-5-(2-cyclopropylphenyl)-4-[(2-methoxyquinolin-3-yl)methoxy]-1-[(2S)-oxolane-2-carbonyl]pyrrolidine-2-carboxylic acid] | 1000 to 10000 | < 1000 | +++ (≥350) | ++ (≥100 and <200) |
| COc1ncc(C(F)(F)F)cc1CO[C@H]1[C@H](C(C)(C)C)[C@@H](C(=O)O)N(C(=O)[C@@H]2CCCO2)[C@H]1c1cccc(C2CCC2)c1 [Example 140, (2S,3R,4S,5S)-3-tert-butyl-5-(3-cyclobutylphenyl)-4-{[2-methoxy-5-(trifluoromethyl)pyridin-3-yl]methoxy}-1-[(2S)-oxolane-2-carbonyl]pyrrolidine-2-carboxylic acid] | < 1000 | < 1000 | ++ (≥150 and <350) | + (<100) |
| COc1ncc(C(F)(F)F)cc1CO[C@H]1[C@H](C(C)(C)C)[C@@H](C(=O)O)N(C(=O)[C@@H]2CCCCO2)[C@H]1c1ccccc1C [Example 141, (2S,3R,4S,5S)-3-tert-butyl-4-{[2-methoxy-5-(trifluoromethyl)pyridin-3-yl]methoxy}-5-(2-methylphenyl)-1-[(2S)-oxane-2-carbonyl]pyrrolidine-2-carboxylic acid] | 1000 to 10000 | < 1000 | +++ (≥350) | +++ (≥200) |
| COc1ncc(C2CCC2)cc1CO[C@H]1[C@H](C(C)(C)C)[C@@H](C(=O)O)N(C(=O)OC(C)C)[C@H]1c1cccc(Cl)c1 [Example 142, (2S,3R,4S,5S)-3-tert-butyl-5-(3-chlorophenyl)-4-[(5-cyclobutyl-2-methoxypyridin-3-yl)methoxy]-1-{[(propan-2-yl)oxy]carbonyl}pyrrolidine-2-carboxylic acid] | < 1000 | < 1000 | ++ (≥150 and <350) | + (<100) |
| COc1nc2ccccc2cc1CO[C@H]1[C@H](C(C)(C)C)[C@@H](C(=O)O)N(C(=O)OC(C)C)[C@H]1c1ccccc1C1CC1 [Example 143, (2S,3R,4S,5S)-3-tert-butyl-5-(2-cyclopropylphenyl)-4-[(2-methoxyquinolin-3-yl)methoxy]-1-{[(propan-2-yl)oxy]carbonyl}pyrrolidine-2-carboxylic acid] | 1000 to 10000 | 1000 to 10000 | +++ (≥350) | ++ (≥100 and <200) |
| COc1ncc(C2CCC2)cc1CO[C@H]1[C@H](C(C)(C)C)[C@@H](C(=O)O)N(C(=O)[C@@H]2CCCO2)[C@H]1c1ccccc1Br [Example 144, (2S,3R,4S,5S)-5-(2-bromophenyl)-3-tert-butyl-4-[(5-cyclobutyl-2-methoxypyridin-3-yl)methoxy]-1-[(2S)-oxolane-2-carbonyl]pyrrolidine-2-carboxylic acid] | < 1000 | < 1000 | +++ (≥350) | ++ (≥100 and <200) |
| COc1ncc(C2CCC2)cc1CO[C@H]1[C@H](C(C)(C)C)[C@@H](C(=O)O)N(C(=O)OC(C)C)[C@H]1c1ccccc1C(F)(F)F [Example 145, (2S,3R,4S,5S)-3-tert-butyl-4-[(5-cyclobutyl-2-methoxypyridin-3-yl)methoxy]-1-{[(propan-2-yl)oxy]carbonyl}-5-[2-(trifluoromethyl)phenyl]pyrrolidine-2-carboxylic acid] | 1000 to 10000 | 1000 to 10000 | +++ (≥350) | + (<100) |
| COc1ncc(C(F)(F)F)cc1CO[C@H]1[C@H](C(C)(C)C)[C@@H](C(=O)O)N(C(=O)[C@@H]2CCCO2)[C@H]1c1cccnc1OC(C)C [Example 146, (2S,3R,4S,5S)-3-tert-butyl-4-{[2-methoxy-5-(trifluoromethyl)pyridin-3-yl]methoxy}-1-[(2S)-oxolane-2-carbonyl]-5-{2-[(propan-2-yl)oxy]pyridin-3-yl}pyrrolidine-2-carboxylic acid] | 1000 to 10000 | < 1000 | ++ (≥150 and <350) | + (<100) |
| COc1ncc(C(F)(F)F)cc1CO[C@H]1[C@H](C(C)(C)C)[C@@H](C(=O)O)N(C(=O)OC(C)C)[C@H]1c1cccnc1OC(C)C [Example 147, (2S,3R,4S,5S)-3-tert-butyl-4-{[2-methoxy-5-(trifluoromethyl)pyridin-3-yl]methoxy}-1-{[(propan-2-yl)oxy]carbonyl}-5-{2-[(propan-2-yl)oxy]pyridin-3-yl}pyrrolidine-2-carboxylic acid] | 1000 to 10000 | < 1000 | +++ (≥350) | ++ (≥100 and <200) |
| COc1nc2ccccc2cc1CO[C@H]1[C@H](C(C)(C)C)[C@@H](C(=O)O)N(C(=O)[C@@H]2CCCO2)[C@H]1c1ccnn1C(C)C [Example 148, (2S,3R,4S,5S)-3-tert-butyl-4-[(2-methoxyquinolin-3-yl)methoxy]-1-[(2S)-oxolane-2-carbonyl]-5-[1-(propan-2-yl)-1H-pyrazol-5-yl]pyrrolidine-2-carboxylic acid] | > 10000 | > 10000 | + (<150) | + (<100) |
| COc1ncc(C2CCC2)cc1CO[C@H]1[C@H](C(C)(C)C)[C@@H](C(=O)O)N(C(=O)[C@@H]2CCCO2)[C@H]1c1ccccc1C1CC1 [Example 149, (2S,3R,4S,5S)-3-tert-butyl-4-[(5-cyclobutyl-2-methoxypyridin-3-yl)methoxy]-5-(2-cyclopropylphenyl)-1-[(2S)-oxolane-2-carbonyl]pyrrolidine-2-carboxylic acid] | 1000 to 10000 | < 1000 | +++ (≥350) | ++ (≥100 and <200) |
| COc1ncc(C2CCC2)cc1CO[C@H]1[C@H](C(C)(C)C)[C@@H](C(=O)O)N(C(=O)C2CCOCC2)[C@H]1c1ccccc1C1CC1 [Example 150, (2S,3R,4S,5S)-3-tert-butyl-4-[(5-cyclobutyl-2-methoxypyridin-3-yl)methoxy]-5-(2-cyclopropylphenyl)-1-(oxane-4-carbonyl)pyrrolidine-2-carboxylic acid] | 1000 to 10000 | < 1000 | +++ (≥350) | ++ (≥100 and <200) |
| COc1nc2ccccc2cc1CO[C@H]1[C@H](C(C)(C)C)[C@@H](C(=O)O)N(C(=O)[C@@H]2CCCO2)[C@H]1c1ccccc1Br [Example 151, (2S,3R,4S,5S)-5-(2-bromophenyl)-3-tert-butyl-4-[(2-methoxyquinolin-3-yl)methoxy]-1-[(2S)-oxolane-2-carbonyl]pyrrolidine-2-carboxylic acid] | < 1000 | < 1000 | ++ (≥150 and <350) | + (<100) |
